Measured values reported in ChEMBL document CHEMBL4190358, “Bruton's Tyrosine Kinase Inhibitors for the Treatment of Autoimmune Diseases and Cancers” (ACS Med Chem Lett, 2017).
pIC50: −log10 of the molar value.

biological target: Tyrosine-protein kinase BTK (Homo sapiens, UniProt Q06187); experiment: Inhibition of BTK (unknown origin) using peptide substrate after 1 hr by HTRF assay
Sequence (Q06187 whole entry): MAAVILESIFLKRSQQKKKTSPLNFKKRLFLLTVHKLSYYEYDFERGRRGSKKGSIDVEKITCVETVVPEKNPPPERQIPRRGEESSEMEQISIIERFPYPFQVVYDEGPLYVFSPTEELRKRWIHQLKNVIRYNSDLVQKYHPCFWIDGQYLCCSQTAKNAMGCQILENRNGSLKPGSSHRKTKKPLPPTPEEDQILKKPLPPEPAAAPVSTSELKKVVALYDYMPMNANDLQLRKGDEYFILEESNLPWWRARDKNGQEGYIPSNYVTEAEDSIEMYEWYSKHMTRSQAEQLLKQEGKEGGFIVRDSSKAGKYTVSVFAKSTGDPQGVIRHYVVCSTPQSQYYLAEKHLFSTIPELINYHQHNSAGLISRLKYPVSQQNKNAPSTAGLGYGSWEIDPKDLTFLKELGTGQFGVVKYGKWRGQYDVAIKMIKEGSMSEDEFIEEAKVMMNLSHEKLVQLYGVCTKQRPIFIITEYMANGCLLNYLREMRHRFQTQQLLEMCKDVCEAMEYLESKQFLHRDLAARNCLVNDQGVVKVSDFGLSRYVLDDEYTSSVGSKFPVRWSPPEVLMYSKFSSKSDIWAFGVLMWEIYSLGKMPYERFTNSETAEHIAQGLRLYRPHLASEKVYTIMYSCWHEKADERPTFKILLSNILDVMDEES

Row | SMILES | pIC50
1 | C=CC(=O)N1CC[C@@H](n2nc(-c3ccc(Oc4cccc(OC)c4C)cc3)c3cnccc32)C1 | 7.00 to 8.00
2 | C=CC(=O)N1CCC[C@H](n2nc3ccncc3c2-c2ccc(Oc3cccc(Cl)c3Cl)cc2)C1 | ≥ 8.00
3 | C=CC(=O)N1CC[C@@H](n2nc(-c3ccc(Oc4cccc(OC)c4Cl)cc3)c3cnccc32)C1 | ≥ 8.00
4 | CC#CC(=O)N1CCC[C@@H](n2nc(-c3ccc(C(=O)Nc4ccccn4)cc3)c3cnccc32)C1 | 6.00 to 7.00
5 | COc1cccc(Oc2ccc(-c3nn([C@@H]4CCCN(C(=O)OC(C)(C)C)C4)c4c(OC)cncc34)cc2)c1F | ≥ 8.00
6 | C=CC(=O)N1CC[C@@H](n2nc(-c3ccc(Sc4cccc(F)c4)cc3)c3cnccc32)C1 | ≥ 8.00
7 | C=CC(=O)N1CC[C@H](n2nc3ccncc3c2-c2ccc(Oc3cccc(Cl)c3Cl)cc2)C1 | ≥ 8.00
8 | C=CC(=O)N1CCC[C@@H](n2nc(-c3ccc(Oc4cccc(Cl)c4)cc3)c3cnccc32)C1 | 7.00 to 8.00
9 | C=CC(=O)N1CCC[C@@H](n2nc(-c3ccc(Oc4cccc(OC)c4F)cc3)c3cncc(OC)c32)C1 | 6.00 to 7.00
10 | O=C(Nc1ccc(-c2nn(C3CCC(C(=O)O)CC3)c3ccncc23)cc1)c1ccccc1 (configuration not stated) | ≤ 5.00
11 | C=CC(=O)N1CC[C@@H](n2nc(-c3ccc(Oc4cccc(OC)c4F)cc3)c3c2CCN(C(C)=O)C3)C1 | 5.00 to 6.00
12 | C=CC(=O)N1CCC[C@@H](n2nc(-c3ccc(Oc4ccccc4)cc3)c3cnccc32)C1 | ≥ 8.00
